Test results reported in PubChem BioAssay (NCI).
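96-well plates; 48 h exposure; 5 concentrations. Endpoints by linear interpolation between flanking doses. Not reached: highest tested concentration assigned. GI50 is the concentration that inhibits growth by half. TGI is the concentration that stops growth completely.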

How the values were obtained:
Experiment in all cases: DTP human tumour cell line panel, 48 h
MALME-3M melanoma = test system: MALME-3M melanoma
HCT-15 colon = test system: HCT-15 colon
OVCAR-4 ovarian = test system: OVCAR-4 ovarian
NCI-H522 lung = test system: NCI-H522 lung
SNB-75 CNS = test system: SNB-75 CNS
UACC-62 melanoma = test system: UACC-62 melanoma
SK-MEL-5 melanoma = test system: SK-MEL-5 melanoma
T-47D breast = test system: T-47D breast
HT29 colon = test system: HT29 colon
OVCAR-8 ovarian = test system: OVCAR-8 ovarian
MDA-MB-435 = test system: MDA-MB-435
COLO 205 colon = test system: COLO 205 colon
HOP-62 NSCLC = test system: HOP-62 NSCLC
HOP-92 NSCLC = test system: HOP-92 NSCLC
HS 578T breast = test system: HS 578T breast
MOLT-4 leukemia = test system: MOLT-4 leukemia
SK-OV-3 ovarian = test system: SK-OV-3 ovarian
TK-10 renal = test system: TK-10 renal
RPMI-8226 leukemia = test system: RPMI-8226 leukemia
UACC-257 melanoma = test system: UACC-257 melanoma
NCI-H23 lung = test system: NCI-H23 lung
CCRF-CEM leukemia = test system: CCRF-CEM leukemia
A549 NSCLC = test system: A549 NSCLC
IGROV1 ovarian = test system: IGROV1 ovarian
SK-MEL-2 melanoma = test system: SK-MEL-2 melanoma
SNB-19 CNS = test system: SNB-19 CNS
NCI/ADR-RES ovarian = test system: NCI/ADR-RES ovarian
RXF 393 renal = test system: RXF 393 renal
ACHN renal = test system: ACHN renal

## COc1ccccc1CNCCCN1C(=O)c2ccc3c4c(ccc(c24)C1=O)C(=O)N(CCCNCCCN)C3=O
MALME-3M melanoma
  TGI: 2200 nM
HCT-15 colon
  GI50: 886 nM
  TGI: 3760 nM
OVCAR-4 ovarian
  GI50: 847 nM
  TGI: 2670 nM
NCI-H522 lung
  GI50: 471 nM
  TGI: 2310 nM
SNB-75 CNS
  GI50: 1290 nM
  TGI: 3290 nM
UACC-62 melanoma
  GI50: 653 nM
  TGI: 2170 nM
SK-MEL-5 melanoma
  GI50: 482 nM
  TGI: 1820 nM
T-47D breast
  GI50: 791 nM
  TGI: 3080 nM
HT29 colon
  GI50: 159 nM
  TGI: 1540 nM
OVCAR-8 ovarian
  GI50: 73.5 nM
  TGI: 2830 nM
MDA-MB-435
  GI50: 570 nM
  TGI: 2720 nM
COLO 205 colon
  GI50: 456 nM
  TGI: 1850 nM
HOP-62 NSCLC
  GI50: 444 nM
  TGI: 3340 nM
HOP-92 NSCLC
  GI50: 971 nM
  TGI: 4880 nM
HS 578T breast
  GI50: 1200 nM
  TGI: 5820 nM
MOLT-4 leukemia
  GI50: 182 nM
  TGI: 1990 nM
SK-OV-3 ovarian
  GI50: 1010 nM
  TGI: 4660 nM
TK-10 renal
  GI50: 1570 nM
  TGI: 6360 nM
RPMI-8226 leukemia
  GI50: 581 nM
  TGI: 4880 nM
UACC-257 melanoma
  GI50: 607 nM
  TGI: 1980 nM
NCI-H23 lung
  GI50: 310 nM
  TGI: 2550 nM
CCRF-CEM leukemia
  GI50: 185 nM
  TGI: 4130 nM
A549 NSCLC
  GI50: 130 nM
  TGI: 2130 nM
IGROV1 ovarian
  GI50: 272 nM
  TGI: 2720 nM
SK-MEL-2 melanoma
  GI50: 907 nM
  TGI: 3030 nM
SNB-19 CNS
  GI50: 605 nM
  TGI: 4050 nM
NCI/ADR-RES ovarian
  GI50: 1160 nM
  TGI: 5710 nM
RXF 393 renal
  GI50: 246 nM
  TGI: 1930 nM
ACHN renal
  GI50: 526 nM
  TGI: 10300 nM
